This note sets out measurements from patent EP0022478B1, “Polyhydro-3,7-dimethyl-8-(2-(tetrahydro-4-hydroxy-6-oxo-2H-pyran-2-yl)-ethyl)-1-naphthylenyl-2-methylbutanoates, corresponding hydroxy acids, process for preparing and pharmaceutical compositions containing the same” (Merck & Co., Inc., priority 1979, dated 1981).

For data set [1], the target named is T1, HMG-CoA Reductase (Rattus norvegicus, UniProt P51639).
T1 sequence (P51639 1-887): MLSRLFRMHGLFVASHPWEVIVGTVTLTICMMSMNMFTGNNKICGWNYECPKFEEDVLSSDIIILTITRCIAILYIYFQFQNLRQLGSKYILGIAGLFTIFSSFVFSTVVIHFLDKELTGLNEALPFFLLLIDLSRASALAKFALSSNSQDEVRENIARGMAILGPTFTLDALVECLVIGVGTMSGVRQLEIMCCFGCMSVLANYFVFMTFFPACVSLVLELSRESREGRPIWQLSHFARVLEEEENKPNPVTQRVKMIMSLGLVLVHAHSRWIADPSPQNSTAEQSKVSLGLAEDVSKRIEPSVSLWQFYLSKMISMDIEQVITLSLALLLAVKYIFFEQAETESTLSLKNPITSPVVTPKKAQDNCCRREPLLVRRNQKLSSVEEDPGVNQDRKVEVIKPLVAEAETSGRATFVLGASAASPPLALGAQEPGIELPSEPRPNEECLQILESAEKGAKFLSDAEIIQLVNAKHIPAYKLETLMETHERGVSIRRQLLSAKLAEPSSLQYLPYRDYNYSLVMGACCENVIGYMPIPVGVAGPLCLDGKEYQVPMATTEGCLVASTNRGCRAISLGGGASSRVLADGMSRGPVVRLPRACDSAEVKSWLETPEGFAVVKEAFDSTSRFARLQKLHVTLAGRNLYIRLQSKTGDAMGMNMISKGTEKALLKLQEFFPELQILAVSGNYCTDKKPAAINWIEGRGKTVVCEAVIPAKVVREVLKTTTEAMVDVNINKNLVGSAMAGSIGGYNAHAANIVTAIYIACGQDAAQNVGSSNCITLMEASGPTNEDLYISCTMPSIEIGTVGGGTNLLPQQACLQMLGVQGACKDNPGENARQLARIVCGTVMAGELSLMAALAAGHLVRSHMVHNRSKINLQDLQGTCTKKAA
The data set can be described thus: In vitro inhibition of HMG Coenzyme A reductase, Beg method modified by 5 min preincubation of enzyme with inhibitor. The data set is classed as biochemical. Particulars: modified procedure; read-out: IC50 in inhibiting HMG-CoA Reductase.
Method: The method of Beg et al., FEBS Letters, 80 123 (1977) was modified slightly by incubating the enzyme with the inhibitor for five minutes before initiating the reaction with the substrate.

Data set [2] has as its target T2, mouse L―M cells (Mus musculus, UniProt Q01237).
T2 sequence (Q01237 1-887): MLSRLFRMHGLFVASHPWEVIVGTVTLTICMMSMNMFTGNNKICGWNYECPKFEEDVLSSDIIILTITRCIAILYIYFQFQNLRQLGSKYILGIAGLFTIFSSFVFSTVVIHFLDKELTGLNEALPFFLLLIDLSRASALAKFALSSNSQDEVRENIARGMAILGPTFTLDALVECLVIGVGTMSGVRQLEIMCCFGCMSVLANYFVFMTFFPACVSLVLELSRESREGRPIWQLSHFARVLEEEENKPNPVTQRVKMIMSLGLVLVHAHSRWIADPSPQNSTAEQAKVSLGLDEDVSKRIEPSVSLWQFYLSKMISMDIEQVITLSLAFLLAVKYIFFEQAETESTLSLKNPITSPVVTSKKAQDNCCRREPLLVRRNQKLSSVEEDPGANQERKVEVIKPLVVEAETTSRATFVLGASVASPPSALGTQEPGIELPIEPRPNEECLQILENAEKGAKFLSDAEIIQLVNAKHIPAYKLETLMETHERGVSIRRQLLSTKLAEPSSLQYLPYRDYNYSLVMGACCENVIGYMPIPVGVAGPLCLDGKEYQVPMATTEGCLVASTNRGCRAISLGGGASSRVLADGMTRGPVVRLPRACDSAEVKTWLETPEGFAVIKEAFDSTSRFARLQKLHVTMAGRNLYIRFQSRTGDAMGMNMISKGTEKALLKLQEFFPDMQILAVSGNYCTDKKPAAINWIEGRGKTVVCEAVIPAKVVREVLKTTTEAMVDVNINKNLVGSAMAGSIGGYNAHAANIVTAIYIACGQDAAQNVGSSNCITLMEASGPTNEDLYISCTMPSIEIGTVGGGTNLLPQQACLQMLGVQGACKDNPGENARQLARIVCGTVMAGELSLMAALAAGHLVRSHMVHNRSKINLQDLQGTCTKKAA
The data set can be described thus: Inhibition of sterol synthesis in cell culture (14C sterol from 14C acetic acid). The data set is classed as cell-based. Here is the method: The procedure of A. W. Alberts et al., J. Biol. Chem. 249: 5241 (1974) measuring the quantity of ^14C sterol biosynthesis frofdm ^14C acetic acid in mouse L―M cells in culture was employed with modification. The test compound in 10 µl DMSO was added to the monolayer cultures with 5 µCi of ^14C acetate. After a 3 hour incubation, the cells were saponified and the ^14C sterol extracted and isolated by thin layer chromatography on silica gel using petroleum ether-diethyl ether-acetic acid (75:25:1). The region on the plate containing ^14C sterol was identified by staining with 12 and the ^14C content determined by liquid scintillation counting.

Data set [3] is described as follows: Stability of the hydroxy acid on standing.
Data set [4] relates to cholesterol synthesis. Kind of data set: In vivo inhibition of cholesterol synthesis (14C acetate into 14C cholesterol). Also on record: species or system male Holtzman rats. Particulars: 14C acetate IP after one hour, bled 50 minutes later. Here is the method: Groups of male Holtzman rats were dosed with either 5% emulphor in saline or test compound in emulphor by stomach tube. After one hour 80 µCi of ^14C acetate/kg was given IP. The rats were bled 50 minutes later and ^14C cholesterol was determined as a measure of sterol synthesis: […]

[5] abbreviates: mouse L-M cell monolayers, 3 hour incubation with 14C acetate; read-out: IC50 in inhibiting HMG-CoA reductase.

Molecules are shown by their SMILES. Where a name gives a salt, the structure may show the parent alone. Read-outs that look alike come from different tables or passages of the source.

In general, IC50 refers to the concentration needed to halve the response being measured. In the case of `CC[C@H](C)C(=O)O[C@H]1CCC=C2C=C[C@H](C)[C@H](CC[C@@H]3C[C@@H](O)CC(=O)O3)[C@H]21` [ML236B, compactin, reference compound], the IC50 came out at 5.4 nM in data set [1] and 46 nM in data set [2] (setting [5]).

`CCC(C)C(=O)OC1CC(C)CC2C=CC(C)C(CCC(O)CC(O)CC(=O)O)C21` (stereo not drawn) [Compound IV]: in data set [3], the “stability of hydroxy acid on standing” value is listed as “slowly reverts to the lactone”.

Take `CCC(C)C(=O)O[C@H]1C[C@@H](C)C[C@@H]2C=C[C@H](C)[C@H](CC[C@@H](O)C[C@@H](O)CC(=O)O)[C@@H]12` (stereo partly drawn) [sodium salt of Compound IV]: in data set [1], the IC50 was 2.7 nM. Consider `CCC(C)C(=O)O[C@H]1C[C@@H](C)C=C2C=C[C@H](C)[C@H](CC[C@@H]3C[C@@H](O)CC(=O)O3)[C@H]21` (stereo partly drawn) [Compound I], for which the IC50 in data set [2] (read-out: IC50 in inhibiting HMG-CoA reductase; mouse L-M cell monolayers, 3 hour incubation with 14C acetate) was found to be 22 nM. In general, % Inhibition refers to the percentage by which the read-out fell short of the control. A high value points to a response far below the control. Take `CCC(C)C(=O)O[C@H]1C[C@@H](C)C[C@@H]2C=C[C@H](C)[C@H](CC[C@@H]3C[C@@H](O)CC(=O)O3)[C@@H]12` (stereo partly drawn) [Compound II]: the figures for the “% Inhibition” value in data set [4] (dose 0.15 mg/kg by stomach tube), in data set [4] (dose 0.6 mg/kg by stomach tube) and in data set [4] (dose 1.2 mg/kg by stomach tube) were 38%, 51% and 70%, respectively. The IC50 in data set [2] (setting [5]) was 17 nM.
